Key:
Format in all cases: in vivo
[1] = tested on: ABUTH, Velvetleaf, Abutilon theophrasti, Medic.; experiment: Postemergence herbicidal evaluation (Example 147); conditions: rating scale 0-9, two to three weeks after treatment
Summary of the method: (§1)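 Seedlings grown about two weeks, then sprayed (nozzle at 40 psi) with compound in 80/20 acetone/water plus 1.0% methylated seed oil at about 0.016 to 0.032 kg/ha. Kept in greenhouse; visual injury rated 0-9 versus untreated control two to three weeks after treatment; replicate tests averaged.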

[2] = tested on: ALOMY, Blackgrass, Alopecurus myosuroides; experiment: Postemergence herbicidal evaluation (Example 147); conditions: rating scale 0-9, two to three weeks after treatment
Summary of the method: as §1

[3] = tested on: AMBEL, Ragweed, Common, Ambrosia artemiisifolia, L.; experiment: Postemergence herbicidal evaluation (Example 147); conditions: rating scale 0-9, two to three weeks after treatment
Summary of the method: as §1

[4] = tested on: CHEAL, Lambsquarters, Chenopodium album, L. Common; experiment: Postemergence herbicidal evaluation (Example 147); conditions: rating scale 0-9, two to three weeks after treatment
Summary of the method: as §1

[5] = tested on: DIGSA, Crabgrass, (Hairy) L, Digitaria sanguinalis, (L)Scop; experiment: Postemergence herbicidal evaluation (Example 147); conditions: rating scale 0-9, two to three weeks after treatment
Summary of the method: as §1

[6] = tested on: ECHCG, Barnyardgrass, Echinochloa crusgalli, (L.)Beau; experiment: Postemergence herbicidal evaluation (Example 147); conditions: rating scale 0-9, two to three weeks after treatment
Summary of the method: as §1

[7] = tested on: GLXMA, Soybean, Glycine max, (L.) Merr.; experiment: Postemergence herbicidal evaluation (Example 147); conditions: rating scale 0-9, two to three weeks after treatment
Summary of the method: as §1

[8] = tested on: IPOHE, Morningglory, Ivyleaf, Ipomoea hederacea, (L)Jacq.; experiment: Postemergence herbicidal evaluation (Example 147); conditions: rating scale 0-9, two to three weeks after treatment
Summary of the method: as §1

[9] = tested on: SETVI, Green foxtail, Setaria viridis, (L.)Beau; experiment: Postemergence herbicidal evaluation (Example 147); conditions: rating scale 0-9, two to three weeks after treatment
Summary of the method: as §1

[10] = tested on: TRZAW, Winter wheat, Tritium Aestivum, L. (Winter); experiment: Postemergence herbicidal evaluation (Example 147); conditions: rating scale 0-9, two to three weeks after treatment
Summary of the method: as §1

[11] = tested on: XANST, Cocklebur, Xanthium strumariam; experiment: Postemergence herbicidal evaluation (Example 147); conditions: rating scale 0-9, two to three weeks after treatment
Summary of the method: as §1

[12] = tested on: ZEAMX, Field corn, Zea mays L.; experiment: Postemergence herbicidal evaluation (Example 147); conditions: rating scale 0-9, two to three weeks after treatment
Summary of the method: as §1

[13] = tested on: ABUTH, Velvetleaf, Abutilon theophrasti, Medic.; experiment: Preemergence herbicidal evaluation (Example 148); conditions: rating scale 0-9, two to four weeks after treatment
Summary of the method: (§2)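 Visual scoring against control (stand, vigor, malformation, size, chlorosis, overall appearance) took place two to four weeks post-spray in the greenhouse. Compound in aqueous acetone was applied to freshly seeded soil cups at roughly 0.125–0.250 kg/ha. Values from multiple tests were averaged.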

[14] = tested on: ALOMY, Blackgrass, Alopecurus myosuroides; experiment: Preemergence herbicidal evaluation (Example 148); conditions: rating scale 0-9, two to four weeks after treatment
Summary of the method: as §2

[15] = tested on: AMBEL, Ragweed, Common, Ambrosia artemiisifolia, L.; experiment: Preemergence herbicidal evaluation (Example 148); conditions: rating scale 0-9, two to four weeks after treatment
Summary of the method: as §2

[16] = tested on: CHEAL, Lambsquarters, Chenopodium album, L. Common; experiment: Preemergence herbicidal evaluation (Example 148); conditions: rating scale 0-9, two to four weeks after treatment
Summary of the method: as §2

[17] = tested on: DIGSA, Crabgrass, (Hairy) L, Digitaria sanguinalis, (L)Scop; experiment: Preemergence herbicidal evaluation (Example 148); conditions: rating scale 0-9, two to four weeks after treatment
Summary of the method: as §2

[18] = tested on: ECHCG, Barnyardgrass, Echinochloa crusgalli, (L.)Beau; experiment: Preemergence herbicidal evaluation (Example 148); conditions: rating scale 0-9, two to four weeks after treatment
Summary of the method: as §2

[19] = tested on: GLXMA, Soybean, Glycine max, (L.) Merr.; experiment: Preemergence herbicidal evaluation (Example 148); conditions: rating scale 0-9, two to four weeks after treatment
Summary of the method: as §2

[20] = tested on: IPOHE, Morningglory, Ivyleaf, Ipomoea hederacea, (L)Jacq.; experiment: Preemergence herbicidal evaluation (Example 148); conditions: rating scale 0-9, two to four weeks after treatment
Summary of the method: as §2

[21] = tested on: SETVI, Green foxtail, Setaria viridis, (L.)Beau; experiment: Preemergence herbicidal evaluation (Example 148); conditions: rating scale 0-9, two to four weeks after treatment
Summary of the method: as §2

[22] = tested on: TRZAW, Winter wheat, Tritium Aestivum, L. (Winter); experiment: Preemergence herbicidal evaluation (Example 148); conditions: rating scale 0-9, two to four weeks after treatment
Summary of the method: as §2

[23] = tested on: XANST, Cocklebur, Xanthium strumariam; experiment: Preemergence herbicidal evaluation (Example 148); conditions: rating scale 0-9, two to four weeks after treatment
Summary of the method: as §2

[24] = tested on: ZEAMX, Field corn, Zea mays L.; experiment: Preemergence herbicidal evaluation (Example 148); conditions: rating scale 0-9, two to four weeks after treatment
Summary of the method: as §2

## Cn1c(C(F)(F)F)cc(=O)n(-c2cc(C(=O)NS(N)(=O)=O)c(Cl)cc2F)c1=O [Example 58]
[1]; rate 0.016 kg/ha
  Postemergence herbicidal rating ABUTH: 9.0
[1]; rate 0.032 kg/ha
  Postemergence herbicidal rating ABUTH: 9.0
[2]; rate 0.016 kg/ha
  Postemergence herbicidal rating ALMOY: 3.0
[2]; rate 0.032 kg/ha
  Postemergence herbicidal rating ALMOY: 3.0
[3]; rate 0.016 kg/ha
  Postemergence herbicidal rating AMBEL: 9.0
[3]; rate 0.032 kg/ha
  Postemergence herbicidal rating AMBEL: 9.0
[4]; rate 0.016 kg/ha
  Postemergence herbicidal rating CHEAL: 8.0
[4]; rate 0.032 kg/ha
  Postemergence herbicidal rating CHEAL: 9.0
[5]; rate 0.016 kg/ha
  Postemergence herbicidal rating DIGSA: 5.0
[5]; rate 0.032 kg/ha
  Postemergence herbicidal rating DIGSA: 6.0
[6]; rate 0.016 kg/ha
  Postemergence herbicidal rating ECHCG: 6.0
[6]; rate 0.032 kg/ha
  Postemergence herbicidal rating ECHCG: 7.0
[7]; rate 0.016 kg/ha
  Postemergence herbicidal rating GLXMA: 8.5
[7]; rate 0.032 kg/ha
  Postemergence herbicidal rating GLXMA: 8.5
[8]; rate 0.016 kg/ha
  Postemergence herbicidal rating IPOHE: 9.0
[8]; rate 0.032 kg/ha
  Postemergence herbicidal rating IPOHE: 9.0
[9]; rate 0.016 kg/ha
  Postemergence herbicidal rating SETVI: 8.0
[9]; rate 0.032 kg/ha
  Postemergence herbicidal rating SETVI: 8.0
[10]; rate 0.016 kg/ha
  Postemergence herbicidal rating TRZAW: 4.5
[10]; rate 0.032 kg/ha
  Postemergence herbicidal rating TRZAW: 5.0
[11]; rate 0.016 kg/ha
  Postemergence herbicidal rating XANST: 9.0
[11]; rate 0.032 kg/ha
  Postemergence herbicidal rating XANST: 9.0
[12]; rate 0.016 kg/ha
  Postemergence herbicidal rating ZEAMX: 8.0
[12]; rate 0.032 kg/ha
  Postemergence herbicidal rating ZEAMX: 8.0
[13]; rate 0.125 kg/ha
  Preemergence herbicidal rating ABUTH: 9.0
[13]; rate 0.25 kg/ha
  Preemergence herbicidal rating ABUTH: 9.0
[14]; rate 0.125 kg/ha
  Preemergence herbicidal rating ALMOY: 0.0
[14]; rate 0.25 kg/ha
  Preemergence herbicidal rating ALMOY: 0.0
[15]; rate 0.125 kg/ha
  Preemergence herbicidal rating AMBEL: 9.0
[15]; rate 0.25 kg/ha
  Preemergence herbicidal rating AMBEL: 9.0
[16]; rate 0.125 kg/ha
  Preemergence herbicidal rating CHEAL: 9.0
[16]; rate 0.25 kg/ha
  Preemergence herbicidal rating CHEAL: 9.0
[17]; rate 0.125 kg/ha
  Preemergence herbicidal rating DIGSA: 0.0
[17]; rate 0.25 kg/ha
  Preemergence herbicidal rating DIGSA: 3.0
[18]; rate 0.125 kg/ha
  Preemergence herbicidal rating ECHCG: 4.0
[18]; rate 0.25 kg/ha
  Preemergence herbicidal rating ECHCG: 6.0
[19]; rate 0.125 kg/ha
  Preemergence herbicidal rating GLXMA: 9.0
[19]; rate 0.25 kg/ha
  Preemergence herbicidal rating GLXMA: 9.0
[20]; rate 0.125 kg/ha
  Preemergence herbicidal rating IPOHE: 9.0
[20]; rate 0.25 kg/ha
  Preemergence herbicidal rating IPOHE: 9.0
[21]; rate 0.125 kg/ha
  Preemergence herbicidal rating SETVI: 2.0
[21]; rate 0.25 kg/ha
  Preemergence herbicidal rating SETVI: 6.0
[22]; rate 0.125 kg/ha
  Preemergence herbicidal rating TRZAW: 0.0
[22]; rate 0.25 kg/ha
  Preemergence herbicidal rating TRZAW: 3.0
[23]; rate 0.125 kg/ha
  Preemergence herbicidal rating XANST: 5.0
[23]; rate 0.25 kg/ha
  Preemergence herbicidal rating XANST: 8.0
[24]; rate 0.125 kg/ha
  Preemergence herbicidal rating ZEAMX: 0.0
[24]; rate 0.25 kg/ha
  Preemergence herbicidal rating ZEAMX: 1.0

## CNS(=O)(=O)NC(=O)c1cc(-n2c(=O)cc(C(F)(F)F)n(C)c2=O)c(F)cc1Cl [Example 56]
[1]; rate 0.016 kg/ha
  Postemergence herbicidal rating ABUTH: 9.0
[1]; rate 0.032 kg/ha
  Postemergence herbicidal rating ABUTH: 9.0
[2]; rate 0.016 kg/ha
  Postemergence herbicidal rating ALMOY: 2.0
[2]; rate 0.032 kg/ha
  Postemergence herbicidal rating ALMOY: 2.0
[3]; rate 0.016 kg/ha
  Postemergence herbicidal rating AMBEL: 8.0
[3]; rate 0.032 kg/ha
  Postemergence herbicidal rating AMBEL: 9.0
[4]; rate 0.016 kg/ha
  Postemergence herbicidal rating CHEAL: 7.0
[4]; rate 0.032 kg/ha
  Postemergence herbicidal rating CHEAL: 7.0
[5]; rate 0.016 kg/ha
  Postemergence herbicidal rating DIGSA: 3.0
[5]; rate 0.032 kg/ha
  Postemergence herbicidal rating DIGSA: 5.0
[6]; rate 0.016 kg/ha
  Postemergence herbicidal rating ECHCG: 7.0
[6]; rate 0.032 kg/ha
  Postemergence herbicidal rating ECHCG: 7.0
[7]; rate 0.016 kg/ha
  Postemergence herbicidal rating GLXMA: 8.5
[7]; rate 0.032 kg/ha
  Postemergence herbicidal rating GLXMA: 8.5
[8]; rate 0.016 kg/ha
  Postemergence herbicidal rating IPOHE: 9.0
[8]; rate 0.032 kg/ha
  Postemergence herbicidal rating IPOHE: 9.0
[9]; rate 0.016 kg/ha
  Postemergence herbicidal rating SETVI: 6.0
[9]; rate 0.032 kg/ha
  Postemergence herbicidal rating SETVI: 7.0
[10]; rate 0.016 kg/ha
  Postemergence herbicidal rating TRZAW: 4.0
[10]; rate 0.032 kg/ha
  Postemergence herbicidal rating TRZAW: 5.0
[11]; rate 0.016 kg/ha
  Postemergence herbicidal rating XANST: 9.0
[11]; rate 0.032 kg/ha
  Postemergence herbicidal rating XANST: 9.0
[12]; rate 0.016 kg/ha
  Postemergence herbicidal rating ZEAMX: 7.5
[12]; rate 0.032 kg/ha
  Postemergence herbicidal rating ZEAMX: 8.0
[13]; rate 0.125 kg/ha
  Preemergence herbicidal rating ABUTH: 9.0
[13]; rate 0.25 kg/ha
  Preemergence herbicidal rating ABUTH: 9.0
[14]; rate 0.125 kg/ha
  Preemergence herbicidal rating ALMOY: 0.0
[14]; rate 0.25 kg/ha
  Preemergence herbicidal rating ALMOY: 0.0
[15]; rate 0.125 kg/ha
  Preemergence herbicidal rating AMBEL: 9.0
[15]; rate 0.25 kg/ha
  Preemergence herbicidal rating AMBEL: 9.0
[16]; rate 0.125 kg/ha
  Preemergence herbicidal rating CHEAL: 9.0
[16]; rate 0.25 kg/ha
  Preemergence herbicidal rating CHEAL: 9.0
[17]; rate 0.125 kg/ha
  Preemergence herbicidal rating DIGSA: 7.0
[17]; rate 0.25 kg/ha
  Preemergence herbicidal rating DIGSA: 7.0
[18]; rate 0.125 kg/ha
  Preemergence herbicidal rating ECHCG: 3.0
[18]; rate 0.25 kg/ha
  Preemergence herbicidal rating ECHCG: 7.0
[19]; rate 0.125 kg/ha
  Preemergence herbicidal rating GLXMA: 2.0
[19]; rate 0.25 kg/ha
  Preemergence herbicidal rating GLXMA: 9.0
[20]; rate 0.125 kg/ha
  Preemergence herbicidal rating IPOHE: 8.0
[20]; rate 0.25 kg/ha
  Preemergence herbicidal rating IPOHE: 9.0
[21]; rate 0.125 kg/ha
  Preemergence herbicidal rating SETVI: 4.0
[21]; rate 0.25 kg/ha
  Preemergence herbicidal rating SETVI: 8.0
[22]; rate 0.125 kg/ha
  Preemergence herbicidal rating TRZAW: 0.0
[22]; rate 0.25 kg/ha
  Preemergence herbicidal rating TRZAW: 0.0
[23]; rate 0.125 kg/ha
  Preemergence herbicidal rating XANST: 8.0
[23]; rate 0.25 kg/ha
  Preemergence herbicidal rating XANST: 9.0
[24]; rate 0.125 kg/ha
  Preemergence herbicidal rating ZEAMX: 0.0
[24]; rate 0.25 kg/ha
  Preemergence herbicidal rating ZEAMX: 2.0
